The results in this text go back to article PMC12040169 (PLOS Biology, 2025).

As a reminder, the viability is a read-out of living cells in per cent, often relative to untreated cells.

The nature of this data set: in vitro. To be noted: human, hela cells, % viability.

`Clc1ccc(COc2ccnc(N3CCCNCC3)n2)cc1Cl` [CBK091550]: the viability at 28.5 h, 10 µM was 90%. To `CN1C(=O)c2ccccc2C(=O)[C@@]2(C)CN(Cc3ccccc3)C[C@@H]12` [CBK284692] belongs 95.1%.

With `CCNS(=O)(=O)c1ccc2c(c1)N(Cc1n[nH]c(CC)n1)CC2` [CBK306434], the viability at 28.5 h, 10 µM turned out to be 86.9%. To `CCNC(CO)c1ccccc1` (centres unmarked) [CBK061785] belongs 109%; to `Cn1c(=O)c2[nH]c(CN3CCN(Cc4ccccc4)CC3)nc2n(C)c1=O` [CBK269519], 86.3%; to `CC(C)(C)c1nn(CC2CCCCC2)c(=N)s1` [CBK075042], 96.2%. To `O=C(Cn1c(-c2ccco2)cc2cccnc21)N1CCCC1` [CBK282683] belongs 84.8%; to `CC(C)CCNC(=O)CC(=O)Nc1ccc(C(=O)O)cc1` [CBK286721], 85.5%; to `CCNS(=O)(=O)c1ccc(NC(=O)Nc2cc(C)ccc2OC)cc1` [CBK266850], 106%. In the case of `COc1ccc(OC(C)(C)C(=O)N2CCCC(c3ccc(Nc4ncccn4)cn3)C2)cc1` (centres unmarked) [CBK285970], the viability at 28.5 h, 10 µM was found to be 83.9%. To `Cc1ccc2oc(-c3cc(NC(=S)NC(=O)c4ccc([N+](=O)[O-])cc4)ccc3O)nc2c1` [CBK263923] belongs 94.3%; to `CC(C)C(=O)Nc1nc2c([nH]c(=O)n2[C@H]2C[C@@H](O)[C@@H](CO)O2)c(=O)[nH]1` [CBK201202], 98.4%. To `Cc1ccc(S(=O)(=O)N2CCN(CC(O)COc3ccc4ccccc4c3)CC2)cc1` (centres unmarked) [CBK266239] belongs 97.7%; to `Cc1cccc(OCCn2cncc2-c2cn(C)nc2C)c1C` [CBK281458], 112%; to `COc1ccc(CN2C(=O)CC(C(=O)O)S/C2=N\c2ccc(Cl)cc2)cc1` (centres unmarked) [CBK287259], 106%.

Consider `N#Cc1c[nH]nc1NS(=O)(=O)c1ccc(F)cc1` [CBK051018], for which the viability at 28.5 h, 10 µM is 106%. To `Cn1ccnc1C(=O)N1C[C@H]2CCc3c(n[nH]c3C(F)(F)F)[C@H]2C1` [CBK283441] belongs 101%. To `Sc1nccn1Cc1cccs1` [CBK008454] belongs 92%; to `CC(C)Nc1cccnc1N1CCN(C(=O)c2ccncc2)CC1` [CBK016714], 79%. To `O=C(O)CC(C(=O)O)N1C(=O)/C(=C2/C(=O)Nc3ccc(Br)cc32)SC1=S` (centres unmarked) [CBK261791] belongs 104%; to `CCc1cc(C(=O)NC(c2ccncc2)c2cccs2)n(C)n1` (centres unmarked) [CBK281482], 109%. `COc1cccc(C(=O)NC(=S)Nc2ccc(C(=O)O)c(Cl)c2)c1` [CBK265065]: the viability at 28.5 h, 10 µM turned out to be 103%. To `COc1cccc(CN(Cc2ncc[nH]2)Cc2ccco2)c1` [CBK282496] belongs 98.7%. `CN(C(=O)c1c[nH]nc1-c1ccc(CNC(=O)Cc2ccc(F)cc2)cc1)c1ccccc1` [CBK285599]: the viability at 28.5 h, 10 µM was 95.9%. For `COC(=O)c1cc(NC(=O)NCCC2=CCCCC2)cc(C(=O)OC)c1` [CBK044120], the viability at 28.5 h, 10 µM amounted to 90.9%.

In the case of `CCCCOc1ccc(-c2nnn(C(C)C(=O)OCC)n2)cc1` (centres unmarked) [CBK068558], the viability at 28.5 h, 10 µM worked out at 88.6%.

`COc1ccc(N(CC(=O)Nc2c(F)cccc2F)S(=O)(=O)c2ccccc2)cc1` [CBK266883]: the viability at 28.5 h, 10 µM worked out at 95.2%. To `CCC(CC)C(=O)N1CCC2(CC1)Nc1cccnc1-n1cccc12` [CBK284508] belongs 80.7%; to `CN(C)C(=O)[C@H]1CN2CCC1C[C@@H]2Cn1cc(CCO)nn1` (some centres unmarked) [CBK289089], 89.9%; to `CN(C)CCN(C)[C@H]1CCCC[C@@H]1N(C)C(=O)Cc1ccc(Br)cc1` [CBK023819C], 93.4%.

`O=C(c1cccnc1)C1CCN(C(=O)Cc2cccc(F)c2)CC1` [CBK283506]: the viability at 28.5 h, 10 µM came out at 101%. To `CN(C)C(=O)c1ccc(-c2ccc(COC3CCN(C(=O)c4cc5ccccc5o4)CC3)c(S(C)(=O)=O)c2)cc1` [CBK155965] belongs 94.6%; to `CC(=O)Nc1cccc(C(=O)OCC(=O)c2cccs2)c1` [CBK306040], 105%. For the compound `c1ccc(N2CCN(c3cccc(-c4cc5ccccc5o4)n3)CC2)nc1` [CBK036875], the viability at 28.5 h, 10 µM worked out at 107%. To `O=C1CC(/C=C/c2ccccc2)Cc2[nH]c(=O)c(C(=O)O)cc21` (centres unmarked) [CBK286933] belongs 92.9%. For the compound `CCN(Cc1ccccc1)C(=O)Nc1ccccc1` [CBK012816], the viability at 28.5 h, 10 µM came out at 94.9%. Regarding `CN1CCN(CCCNC(=O)c2ccc(-c3ccc(C(=O)N(C)C)cc3)nc2)CC1` [CBK158343], the viability at 28.5 h, 10 µM came out at 95%. To `COc1cccc(C2C(C(=O)c3ccc(C)o3)=C(O)C(=O)N2CCN2CCOCC2)c1` (centres unmarked) [CBK264899] belongs 92.8%; to `CCOC(=O)c1csc(C2CCCN2C(=O)c2cc(SC)ccc2Cl)n1` (centres unmarked) [CBK306491], 88%; to `O=C([C@H]1O[C@H](CCN2CCN(c3ccccc3)CC2)CC[C@@H]1O)N1CCOCC1` [CBK288724], 98.5%. To `Cc1c(Cl)cccc1S(=O)(=O)Nc1nc(CCN2CCOCC2=O)cs1` [CBK003498K] belongs 87.7%; to `NC(=O)C1(Cc2ccccc2-c2cccc(F)c2)CCN(C(=O)c2cccc(F)c2)CC1` [CBK285693], 96.8%.

Consider `COc1cccc(C(=O)N2CCC(Cc3ccccc3-c3ccccc3C)(C(N)=O)CC2)c1` [CBK285722], for which the viability at 28.5 h, 10 µM is 94.5%. To `CC(C)NC(=O)N[C@H]1CCN2C(=O)c3cc(-c4ccccc4)ccc3NC(=O)[C@H]12` [CBK289351] belongs 84.1%; to `CC(=O)Nc1cccc(NC(=O)c2cnc3sc(C)cn3c2=O)c1` [CBK287715], 92%; to `COc1ccc(C(NC(=O)C2CCN(C(=O)OCc3ccccc3)CC2)c2ccccc2C)cn1` (centres unmarked) [CBK059726], 91.4%. To `Cn1nc(-c2ccc(F)cc2)cc1[C@H]1CN2CC[C@H]1C[C@@H]2CNS(C)(=O)=O` [CBK289109] belongs 98.8%. To `O=C(Cn1cnc2ccccc21)N1CCc2[nH]c3ccccc3c2C1` [CBK281860] belongs 74.7%; to `O=S(=O)(Nc1cc(F)cc(F)c1F)c1cc(OC2CCNCC2)c2occc2c1` [CBK082814C], 83.9%; to `O=C(Nc1ccncc1)c1c(O)c2ccccc2[nH]c1=O` [CBK288017], 112%. Consider `CC(=O)c1ccc(-c2cnc(N)c(N3CCN(C)CC3)n2)s1` [CBK063432], for which the viability at 28.5 h, 10 µM turned out to be 94.4%. To `O=C(Nc1cccnc1N1CCNCC1)c1ccoc1` [CBK029417T] belongs 95.4%; to `COc1ccc(C(=O)NC(Nc2ccccc2)C(Cl)(Cl)Cl)cc1OC` (centres unmarked) [CBK263680], 106%; to `COc1cc(C2NC(=O)N(CCc3ccccc3)C(c3ccccc3)=C2C(C)=O)ccc1O` (centres unmarked) [CBK269024], 108%. To `N#Cc1sc(NC(=O)c2cccc(Br)c2)nc1Cl` [CBK017468] belongs 45.4%; to `Cc1ccc(NS(=O)(=O)c2cc(C(=O)Nc3cccc(N(C)S(C)(=O)=O)c3)ccc2C)c(C)c1` [CBK268220], 92.7%; to `Cc1cc(C(=O)NC(Cn2ccnc2)c2ccccc2)cc(=O)[nH]1` (centres unmarked) [CBK306818], 94%. To `CC(Cc1nc(C2CC2)cs1)n1cc(Cl)cn1` (centres unmarked) [CBK304707] belongs 90.1%; to `CC(C)(C)NC(=O)Cn1cncc1-c1[nH]c2ccccc2c1Cl` [CBK281981], 105%; to `O=C(CSc1n[nH]c(=O)n1C1CC1)NCCCSc1ccccc1` [CBK295620], 104%. Turning to `O=C(O)Cn1c2ccc(Cl)cc2c2nc3ccccc3nc21` [CBK265712], the viability at 28.5 h, 10 µM was 97.8%. To `O=C1NCCNC(=O)C2(C/C=C/COc3ccccc31)CCCN(C(=O)c1cnco1)C2` (centres unmarked) [CBK291993] belongs 106%; to `Nc1nc(C2CC(O)C2)cc(N2CCC(Oc3ccccc3Cl)CC2)n1` (centres unmarked) [CBK307392], 93.2%; to `COc1ccc(-n2ncc(CN(C)C)n2)cc1OC` [CBK112862], 101%. Turning to `O=C(CSc1ccc2nnc(-c3ccccc3)n2n1)NCC1CCCO1` (centres unmarked) [CBK287515], the viability at 28.5 h, 10 µM is 96.6%. To `O=C(Nc1ccc(Cc2ccc(NC(=O)c3ccc(Br)cc3)c(O)c2)cc1O)c1ccc(Br)cc1` [CBK262086] belongs 102%; to `CNC(=O)C1CCN(S(=O)(=O)c2ccc(C(C)(C)C)cc2)CC1` [CBK051544], 90.3%. To `COC(=O)c1sc2cc(NC(=S)NNC(=O)c3ccoc3C)ccc2c1Cl` [CBK266877] belongs 83.3%.

For the compound `O=C(NN1C(=O)c2ccccc2C1=O)c1cc(C(=O)NN2C(=O)c3ccccc3C2=O)cc(N2C(=O)c3ccccc3C2=O)c1` [CBK262100], the viability at 28.5 h, 10 µM is 88.2%. To `CC1(C)CCCN(C(=O)CCn2ccc3ccncc32)C1` [CBK285173] belongs 87.3%; to `COc1ccc([C@@]23CC[C@@H](NC(=O)Nc4cc(C)nc(C)c4)C[C@@H]2N(C)CC3)cc1OC` [CBK045876], 90.9%; to `O=S(=O)(Nc1cccc(-c2cnco2)c1)c1ccc(Br)cc1C(F)(F)F` [CBK067118], 93.4%. Turning to `CC(Oc1ccc(S(=O)(=O)N2CCN(C)CC2)cc1)C(=O)NC1CCCCC1` (centres unmarked) [CBK269943], the viability at 28.5 h, 10 µM came out at 97.9%.

As for `Cc1cccc(C)c1OCC(=O)Nc1c[nH]c(=O)[nH]c1=O` [CBK263358], the viability at 28.5 h, 10 µM was 46.2%. In the case of `CC(CCO)CNS(=O)(=O)c1ccc(N2CCCC2=O)cc1` (centres unmarked) [CBK306358], the viability at 28.5 h, 10 µM amounted to 90.5%. As to `O=C(CSc1nnc(CN2CCOCC2)n1-c1ccccc1)N1CCc2ccccc21` [CBK266733], the viability at 28.5 h, 10 µM was determined as 92.7%. To `COc1ccc(N(CCN2CCCCC2)S(=O)(=O)c2ccc(C)cc2)cc1` [CBK261131] belongs 98.7%.
